Results from patent US20020156068A1, “Anti-psychosis combination” (priority 2001, published 2002).
Structures can show the parent of a compound that is named as a salt.

Test system: MK-801-induced hyperactivity
Test: Antagonism of MK801-induced hyperlocomotion (locomotor activity cages)
Type: in vivo, rat
Conditions: 180 min; for MK-801-induced hyperactivity as measured by a decrease in ambulation: male Sprague-Dawley rats, AR116081 10 or 20 mg/kg oral, each alone; for MK-801-induced hyperactivity as measured by a decrease in ambulation / effect of MK801 on fine movements, a measure of stereotypies / effect on rear measures (rearing activity): Haloperidol 0.05 mg/kg s.c., MK-801 0.3 mg/kg s.c.; for effect of MK801 on fine movements, a measure of stereotypies / effect on rear measures (rearing activity): AR116081 20 mg/kg oral, alone or combined
Procedure: Antagonism of MK801-Induced Hyperlocomotion: a Model of Potential Antipsychotic (“antipositive”) Activity
Because part of the symptomatology of schizophrenia may be related to altered glutamate transmission at the NMDA receptor, the reversal of MK-801-induced hyperlocomotor activity in rodents has been used routinely as an animal model for detecting potential antipsychotic activity (Hoffinan, D. C., J. Neural. Transm. 89:1-10, 1992).
Motor function was assessed using automated locomotor activity cages (Hamilton-Kinder, San Diego) comprised of standard rodent cages surrounded by photocell beams, allowing for automated recording of motor activity. The animals were under no motivational constraints and were free to move around the cages. In this test, male Sprague-Dawley rats (200-325 g body weight) were food deprived overnight prior to testing. On the testing day, they were administered AR116081 orally at a dose of 10 or 20 mg/kg base (substance # 127190 suspended in 1% Tween 80 and 99% distilled water solution, volume injection 10 cc/kg) immediately followed by subcutaneous administration of Haloperidol at a dose of 0.05 mg/kg base (RBI lot # TOW-1990 dissolved in distilled water and pH at 5-6, volume injection 1 cc/kg). The treated rats were placed in the locomotor activity cages 30 min after co-administration of compounds for a 30 min habituation period to the cages and recording of basal locomotor activity. Animals then received (via subcutaneous administration) (+)-MK801 hydrogen maleate at a dose of 0.3 mg/kg salt (RBI/Sigma Lot #108H4705 dissolved in saline, volume injection 1 cc/kg). The rats were immediately placed back into the locomotor activity cages, and activity was measured for 180 min.

Structure (SMILES) | MK-801-induced hyperactivity as measured by a decrease in ambulation | effect of MK801 on fine movements, a measure of stereotypies (rats) | effect on rear measures (rearing activity) (rats) | motor parameters recorded: ambulation, fine movement and rearing activity (rats, MK-801 0.3 mg/kg s.c. alone)
Cn1ncc(Br)c1-c1cccc(NC(=O)Nc2ccc(Cl)cc2)c1 [AR116081, N-[3-(4-bromo-2-methylpyrazol-3-yl)phenyl][(4-chlorophenyl)amino]carboxamide] | attenuated | attenuated but did not significantly reverse | No effects | –
O=C(CCCN1CCC(O)(c2ccc(Cl)cc2)CC1)c1ccc(F)cc1 [Haloperidol] | attenuated | attenuated but did not significantly reverse | No effects | –
C[C@]12N[C@H](Cc3ccccc31)c1ccccc12 [MK-801, (+)-MK801 hydrogen maleate] | – | – | – | significant increase
